Measurements: PMC7288026, “Novel Class of Chalcone Oxime Ethers as Potent Monoamine Oxidase-B and Acetylcholinesterase Inhibitors” (Molecules, 2020)
Values joined by “and” are separate entries in the source; they are usually repeats but may differ in a detail not shown here. Identical values can stand only once. Like-named read-outs stand apart in the source and are kept apart here.

Key:
MAO-B = molecular target: T1, MAO-B (Homo sapiens, UniProt P27338); assay: biochemical; conditions: for SI (selectivity index, ratio of IC50 MAO-A to MAO-B): MAO-A vs. MAO-B IC50 ratio; for IC50: mean ± standard error of duplicates, reference compounds after 30 min preincubation with enzyme, read-out: IC50 (µM) MAO-B; for remaining activity at 1 µM: read-out: Residual Activity (%) MAO-B (1.0 µM)
T1 construct: purchased Sigma-Aldrich
T1 sequence (P27338 1-520): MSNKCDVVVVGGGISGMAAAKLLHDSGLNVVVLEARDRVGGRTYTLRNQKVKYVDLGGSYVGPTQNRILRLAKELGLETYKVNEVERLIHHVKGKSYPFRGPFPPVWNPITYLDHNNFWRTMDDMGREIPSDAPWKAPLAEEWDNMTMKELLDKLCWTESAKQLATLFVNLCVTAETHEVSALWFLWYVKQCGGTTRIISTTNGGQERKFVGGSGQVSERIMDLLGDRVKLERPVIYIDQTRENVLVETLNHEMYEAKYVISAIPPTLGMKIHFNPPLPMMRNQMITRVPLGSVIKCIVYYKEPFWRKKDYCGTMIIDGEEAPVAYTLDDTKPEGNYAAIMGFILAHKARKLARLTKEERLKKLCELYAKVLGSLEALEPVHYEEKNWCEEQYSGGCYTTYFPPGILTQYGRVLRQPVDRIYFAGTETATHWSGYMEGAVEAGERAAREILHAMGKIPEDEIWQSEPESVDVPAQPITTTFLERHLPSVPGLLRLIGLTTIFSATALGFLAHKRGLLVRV
Experimental: Recombinant hMAO-A and hMAO-B activities were assayed while using kynuramine (0.06 mM) and benzylamine (0.3 mM) as substrates, respectively, as described previously. […] AChE activity was measured using Type VI-S from Electrophorus electricus in the presence of 0.5 mM 5,5’-dithiobis(2-nitrobenzoic acid) and 0.5 mM acetylthiocholine iodide, as described previously. Enzymes and chemicals were purchased from Sigma–Aldrich (St. Louis, MO, USA). […]

recombinant hMAO-A = molecular target: T2, recombinant hMAO-A (Homo sapiens, UniProt P21397); assay: MAO-A inhibition assay (kynuramine substrate); format: biochemical; conditions: for remaining activity at 1 µM: read-out: Residual Activity (%) MAO-A (1.0 µM); for IC50: mean ± standard error of duplicates, reference compounds after 30 min preincubation with enzyme
T2 construct: purchased Sigma-Aldrich
T2 sequence (P21397 1-527): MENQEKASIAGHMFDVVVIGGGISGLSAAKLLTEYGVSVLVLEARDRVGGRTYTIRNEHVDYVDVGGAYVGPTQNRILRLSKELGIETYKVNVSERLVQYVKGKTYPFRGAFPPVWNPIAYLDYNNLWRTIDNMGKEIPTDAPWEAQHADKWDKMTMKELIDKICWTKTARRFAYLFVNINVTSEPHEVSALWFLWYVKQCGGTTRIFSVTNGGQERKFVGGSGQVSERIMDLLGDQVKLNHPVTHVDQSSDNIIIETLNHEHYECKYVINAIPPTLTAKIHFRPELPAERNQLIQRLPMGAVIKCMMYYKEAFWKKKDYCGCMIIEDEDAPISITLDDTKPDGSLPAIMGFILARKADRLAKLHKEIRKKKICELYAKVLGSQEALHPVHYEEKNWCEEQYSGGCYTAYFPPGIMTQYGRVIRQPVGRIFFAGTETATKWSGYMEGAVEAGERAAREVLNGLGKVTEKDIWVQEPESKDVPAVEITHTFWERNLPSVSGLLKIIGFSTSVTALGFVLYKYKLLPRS
Experimental: Recombinant hMAO-A and hMAO-B activities were assayed while using kynuramine (0.06 mM) and benzylamine (0.3 mM) as substrates, respectively, as described previously. […] AChE activity was measured using Type VI-S from Electrophorus electricus in the presence of 0.5 mM 5,5’-dithiobis(2-nitrobenzoic acid) and 0.5 mM acetylthiocholine iodide, as described previously. Enzymes and chemicals were purchased from Sigma–Aldrich (St. Louis, MO, USA).
AChE inhibitory activities were also determined, except at a concentration of 10 µM. […] Kinetic experiments were carried out at five substrate and three inhibitor concentrations.

[1] = molecular target: T3, AChE (Type VI-S from Electrophorus electricus) (Electrophorus electricus, UniProt O42275); assay: AChE inhibition assay (DTNB / acetylthiocholine iodide); format: biochemical; conditions: for remaining activity at 10 µM: read-out: Residual Activity (%) AChE (10 µM)
T3 construct: purchased Sigma-Aldrich Type VI-S
T3 sequence (O42275 24-633): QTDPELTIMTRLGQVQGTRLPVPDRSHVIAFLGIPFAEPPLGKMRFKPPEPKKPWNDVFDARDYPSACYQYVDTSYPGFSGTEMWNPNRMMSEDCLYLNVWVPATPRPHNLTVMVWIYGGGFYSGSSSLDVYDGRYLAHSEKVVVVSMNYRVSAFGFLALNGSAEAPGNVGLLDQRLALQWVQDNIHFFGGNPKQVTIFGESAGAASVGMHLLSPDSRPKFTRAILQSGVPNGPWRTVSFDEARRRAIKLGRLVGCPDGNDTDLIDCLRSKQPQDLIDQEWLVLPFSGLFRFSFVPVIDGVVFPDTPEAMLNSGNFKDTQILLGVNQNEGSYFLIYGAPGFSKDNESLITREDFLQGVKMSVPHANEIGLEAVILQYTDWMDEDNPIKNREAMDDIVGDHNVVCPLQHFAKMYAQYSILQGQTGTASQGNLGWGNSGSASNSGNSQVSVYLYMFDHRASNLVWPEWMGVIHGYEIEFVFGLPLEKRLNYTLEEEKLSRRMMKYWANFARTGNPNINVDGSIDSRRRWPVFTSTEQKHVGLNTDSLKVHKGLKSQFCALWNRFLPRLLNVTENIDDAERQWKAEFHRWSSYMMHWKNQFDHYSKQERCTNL
Experimental: AChE activity was measured using Type VI-S from Electrophorus electricus in the presence of 0.5 mM 5,5’-dithiobis(2-nitrobenzoic acid) and 0.5 mM acetylthiocholine iodide, as described previously. Enzymes and chemicals were purchased from Sigma–Aldrich (St. Louis, MO, USA).
Kinetic experiments were carried out at five substrate and three inhibitor concentrations.

[2] = compound at 1.0 µM, mean ± standard error of duplicate experiments
[3] = compound at 10 µM, mean ± standard error of duplicate experiments

| Structure (SMILES) | SI (selectivity index, ratio of IC50 MAO-A to MAO-B) (MAO-B) | IC50 (MAO-B) [µM] | remaining activity at 1 µM (MAO-B) [%] | remaining activity at 1 µM (recombinant hMAO-A; [2]) [%] | IC50 (recombinant hMAO-A) [µM] | IC50 [1] [µM] | remaining activity at 10 µM [1, 3] [%] | MAO-B potency relative to clorgyline (times more potent) (MAO-B) | MAO-B potency relative to lazabemide (times more potent) (MAO-B) [times] | Residual Activity (%) AChE (10 µM) ([1]; compound at 10 µM, mean ± standard error of duplicate experiments, 10 µM) [%] | Residual Activity (%) MAO-A (1.0 µM) (recombinant hMAO-A; compound at 1.0 µM, mean ± standard error of duplicate experiments, 1 µM) [%] | MAO-A potency relative to pargyline (times more potent) (recombinant hMAO-A; ratio of IC50 values) [times] | MAO-A potency relative to toloxatone (times more potent) (recombinant hMAO-A; ratio of IC50 values) [times] | remaining activity at 1 µM (MAO-B; [2]) [%] |
| --- | --- | --- | --- | --- | --- | --- | --- | --- | --- | --- | --- | --- | --- | --- |
| COc1ccc(/C=C/C(=N/Oc2ccc(C(C)=O)cc2)c2ccc(OC)cc2)cc1 [COE-17] | >13.9 | 0.72 ± 0.015 | 17.6 ± 2.77 | 80.9 ± 2.01 | > 10 | > 40 | 80.3 ± 1.39 |  |  |  |  |  |  |  |
| COc1cc(/C=C/C(=O)c2ccc(ON=C(c3ccccc3)c3ccccc3)cc2)cc(OC)c1OC [COE-15] | >10.5 | 0.95 ± 0.029 | 36.9 ± 9.49 | 95 ± 3.03 | > 10 | > 40 | 56.9 ± 1.4 |  |  |  |  |  |  |  |
| COc1ccc(C(/C=C/c2ccccc2)=N\Oc2ccc(C(C)=O)cc2)cc1 [COE-16] |  | > 10 | 97.8 ± 0.08 | 93.4 ± 3.44 | > 10 | > 40 | 77.3 ± 6.62 |  |  |  |  |  |  |  |
| O=C(/C=C/c1ccc(ON=C(c2ccccc2)c2ccccc2)cc1)c1ccc(F)cc1 [COE-7] | 392.9 | 0.028 ± 0.0016 | 2.48 ± 0.15 | 91.7 ± 6.43 | 11 ± 1.22 | > 40 | 76.2 ± 1.02 | 68 times and 67 times | 1.5 |  |  |  |  |  |
| COc1ccc(/C=C/C(=N/Oc2ccc(/C=C/C(=O)c3ccccc3)cc2)c2ccc(OC)cc2)cc1 [COE-19] | >31.3 | 0.32 ± 0.015 | 19.2 ± 3.06 | 85.3 ± 0.99 | > 10 | 5.35 ± 0.68 | < 50 |  |  | 39.0 ± 0.45 |  |  |  |  |
| COc1cccc(/C=C/C(=O)c2ccc(O/N=C(\C)c3cccs3)cc2)c1 [COE-13] | 6.8 | 0.13 ± 0.0069 | 31.9 ± 9.75 | < 50 | 0.88 ± 0.03 | > 40 | 57.6 ± 1.96 |  |  |  | 46.2 ± 1.07 | 2.8 | 1.1 |  |
| COc1ccc(C(=O)/C=C/c2ccc(O/N=C(\C)c3ccccc3)cc2)cc1 [COE-1] | >35.7 | 0.28 ± 0.041 | 29.9 ± 5.25 | 94.4 ± 2.99 | > 10 | > 40 | 77.6 ± 2.64 |  |  |  |  |  |  |  |
| COc1cccc(C(=O)/C=C/c2ccc(O/N=C(\C)c3cccc4ccccc34)cc2)c1 [COE-8] | 182.9 | 0.042 ± 0.021 |  | 68.6 ± 2.74 | 7.68 ± 0.34 | > 40 | 70.7 ± 3.26 |  |  |  |  |  |  | 10.5 ± 0.21 |
| COc1ccc(/C=C/C(=O)c2ccc(O/N=C(/C=C/c3ccc(OC)cc3)c3ccc(OC)cc3)cc2)cc1 [COE-23] | >66.7 | 0.15 ± 0.021 | 25.8 ± 4.78 | 85.1 ± 4.01 | > 10 | 9.16 ± 0.021 | 57.3 ± 1.34 |  |  |  |  |  |  |  |
| COc1ccc(C(/C=C/c2ccccc2)=N\Oc2ccc(C(=O)/C=C/c3cc(OC)c(OC)c(OC)c3)cc2)cc1 [COE-24] |  | > 10 | 87.4 ± 2.81 | 88.9 ± 0.98 | > 10 | > 40 | 72.5 ± 2.91 |  |  |  |  |  |  |  |
